Test results from patent publication US7364842B2, “Methods of identifying modulators of human retrovirus replication” (IRM, LLC, priority 2003, dated 2008).

Experiments:
[1] = system: human immunodeficiency virus (HIV); conditions: Chao et al., J. Biol. Chem. 2000; cited from earlier work
[2] = system: Moloney murine leukemia virus (MLV); conditions: background statement; cited from earlier work
HMG I-C protein = experiment: Western blot of HMG I-C protein in siRNA-treated Magi cells; type: cell-based; conditions: Magi cells lysed 48-60 hours after transfection; versus luciferase siRNA control
[3] = system: HIV-1 LTR-driven β-gal reporter in Magi cells; experiment: Magi indicator cell β-galactosidase assay (HIV LTR-mediated gene expression); type: cell-based; conditions: Magi cells transiently transfected with siRNA; versus Scramble siRNA control
From the text: (§1) The ability of Pbx 1 to mediate transcription of genes of retroviruses that infect human cells was investigated using Magi indicator cells (e.g., Kimpton and Emerman, J. Virol. 66: 2232-2239, 1992). The MAGI (Multinuclear Activation of a Galactosidase Indicator) cell line was derived from parental HeLa cells by introducing genes for CD4 and an HIV-1 LTR-driven β-gal reporter with an amphotropic retrovirus vector. This cell line exploits the ability of HIV-1 tat to transactivate the expression of a β-galactosidase reporter gene driven by the HIV-LTR. […] The β-galactosidase activity was then assessed in the cultures. […] Western blot analysis of Pbx1 siRNA-transfected Magi cells confirmed that levels of Pbx1 protein were reduced in comparison to control cells transfected with firefly luciferase siRNA, which served as a negative control (FIG. 2). […] The γ-tubulin was used as the loading control.

HIV-1 = conditions: siRNA-transfected Magi cells; versus Scramble siRNA control
Procedure: Magi cells were transiently transfected with an siRNA targeting Pbx1 or Pin1. A Scramble siRNA was used as a negative control. Reverse transcriptase activity was then assessed.
Magi indicator cells were also used to determine the effect of HMG I proteins on the transcription of retroviral genes. Magi cells were transiently transfected with an siRNA targeting HMG I-C or HMG I/Y. A Scramble siRNA was used as a negative control. […] For the western blot analysis, cells were transiently transfected with the siRNAs targeting HMGI/Y (FIG. 9), HMG I-C (FIG. 10) or firefly luciferase (control siRNA). Magi cells were lysed 48-60 hours after transfection and analyzed by western blot using antibodies against HMGI/Y, HMG I-C or γ-tubulin proteins. The γ-tubulin levels were used as the loading controls.

recombinant HIV = experiment: Recombinant HIV assay, luciferase reporter in 293T cells; type: cell-based, HIV-1; conditions: 293T cells transfected with siRNA, infected with recombinant HIV after 24 hours, measured after 48 hrs; versus Scramble siRNA
Procedure: A recombinant HIV assay was used to assess the role of HMG I proteins in HIV replication. Pseudotyped recombinant HIV particles were generated by transient transfection of 293T cells using a three-plasmid expression system (FIGS. 5a and 5b).
A Scramble siRNA was used as a negative control After 24 hours, the transfected cells were infected with recombinant HIV. After 48 hrs, luciferase activity was measured.

Pbx1 protein = experiment: Western blot of Pbx1 protein in siRNA-transfected Magi cells; type: cell-based; conditions: Magi cells lysed 48-60 hours after transfection; versus firefly luciferase siRNA control
From the text: as §1

HMG I/Y protein = experiment: Western blot of HMG I/Y protein in siRNA-treated Magi cells; type: cell-based; conditions: Magi cells lysed 48-60 hours after transfection; versus luciferase siRNA control

| Compound | MLV transcription events [2] | β-gal activity [3] | activity of HIV reverse transcriptase (HIV-1) | also measured |
| --- | --- | --- | --- | --- |
| CN1CC[C@H](c2c(O)cc(O)c3c(=O)cc(-c4ccccc4Cl)oc23)[C@H](O)C1 [flavopiridol] | block |  |  | anti-HIV activity [1]: very potent |
| CC(C)[C@H](CO)Nc1nc(Nc2cccc(Cl)c2)c2ncn(C(C)C)c2n1 [purvalanol A] | block |  |  |  |
| AAGCAGCUCAAAAGAAAGCAG (chemistry not given here) [HMG I-C] |  | inhibited | reduced | levels of HMG I-C protein (HMG I-C protein): reduced; luciferase reporter activity (recombinant HIV): reduced |
| AAGCCUGCCUUGUUUAAUGUG (chemistry not given here) [Pbx1 siRNA] |  | reduced | greatly reduced | levels of Pbx1 protein (Pbx1 protein): reduced |
| AAGUGCCAACACCUAAGAGAC (chemistry not given here) [HMG I/Y] |  | inhibited | reduced | levels of HMG I/Y protein (HMG I/Y protein): reduced |
| methoxy-roscovitine | block |  |  |  |
